Where a name gives a salt, the structure may show the parent alone. Read-outs that look alike come from different tables or passages of the source.
Key:
[1] = type: physicochemical
Text: |Thermal stability data: for crystalline calcium |pseudomate dihydrate, amorphous calcium pseudomonate |Percentage |Initial |Potency |after |Storage ** | ** Expressed as percentage of initial purity.

Water solubility = type: physicochemical; conditions: amorphous form
[2] = test system: Erysipelothrix rhusiopathiae; assay: In vitro MIC against veterinary bacteria, Diagnostic Sensitivity Test Agar; type: cell-based; conditions: NCTC8163, strain NCTC 8163, 18 hours at 37° C.
Method: (§1) The activity of the compounds of the Examples against various veterinarily important bacteria, was assayed in vitro using two-fold serial dilutions in Diagnostic Sensitivity Test Agar inoculated with 10^4 organisms.

Corynebacterium pyogenes = assay: as above; type: cell-based; conditions: Trueperella pyogenes; strain CY1; 18 hours at 37° C.
Method: as §1

Strep.dysgalaciae = assay: as above; type: cell-based; conditions: strain SPD1; 18 hours at 37° C.
Method: as §1

S.typhimurium = assay: as above; type: cell-based; conditions: Salmonella enterica, strain S18, 18 hours at 37° C.
Method: as §1

Bord.bronchiseptica = assay: as above; type: cell-based; conditions: Bordetella bronchiseptica, 18 h, 18 hours at 37° C.
Method: as §1

Moraxella Bovis = assay: as above; type: cell-based; conditions: 18 hours at 37° C.
Method: as §1

Strep.agalactiae = assay: as above; type: cell-based; conditions: Streptococcus agalactiae; strain SPA1; 18 hours at 37° C.
Method: as §1

Past.multocida = assay: as above; type: cell-based; conditions: Pasteurella multocida; strain PA1; 18 hours at 37° C.
Method: as §1

E.coli [3] = assay: as above; type: cell-based; conditions: Escherichia coli, 18 hours at 37° C.
Method: as §1

B.subtilis = assay: as above; type: cell-based; conditions: Bacillus subtilis, ATCC6633; strain ATCC 6633; 18 hours at 37° C.
Method: as §1

Past.haemolytica = assay: as above; type: cell-based; conditions: Mannheimia haemolytica; strain PA5; 18 hours at 37° C.
Method: as §1

Strep.suis (group D) = assay: as above; type: cell-based; conditions: Streptococcus suis; strain SPS11; 18 hours at 37° C.
Method: as §1

Strep.uberis = assay: as above; type: cell-based; conditions: Streptococcus uberis; strain SPU1; 18 hours at 37° C.
Method: as §1

Staph.aureus = assay: as above; type: cell-based; conditions: Staphylococcus aureus, 18 h, 18 hours at 37° C.
Method: as §1

S.dublin = assay: as above; type: cell-based; conditions: Salmonella enterica; strain S7; 18 hours at 37° C.
Method: as §1

Pasteurella multocida = assay: In vitro MIC against human bacteria, nutrient agar with 5% chocolated horse blood; type: cell-based; conditions: strain 1633, 18 hours at 37° C.
Method: (§2) The activity of the compounds of the Examples against various bacteria which are important in diseases of humans, was assayed in vitro using serial dilutions in nutrient agar with 5% chocolated horse blood.

Haemophilus influenzae = assay: as above; type: cell-based; conditions: 18 hours at 37° C.
Method: as §2

S.faecalis = assay: as above; type: cell-based; conditions: 18 hours at 37° C.
Method: as §2

Streptococcus Spp = assay: as above; type: cell-based; conditions: 18 hours at 37° C.
Method: as §2

S.agalactiae = assay: as above; type: cell-based; conditions: 18 hours at 37° C.
Method: as §2

Neisseria catarrhalis = assay: as above; type: cell-based; conditions: strain 1502, 18 hours at 37° C.
Method: as §2

S.pneumoniae = assay: as above; type: cell-based; conditions: Streptococcus pneumoniae; strain CN33; 18 hours at 37° C.
Method: as §2

K.aerogenes = assay: as above; type: cell-based; conditions: Klebsiella aerogenes; strain A; 18 hours at 37° C.
Method: as §2

R.mirabilis = assay: as above; type: cell-based; conditions: strain 889; 18 hours at 37° C.
Method: as §2

E.coli [4] = assay: as above; type: cell-based; conditions: Escherichia coli, 18 hours at 37° C.
Method: as §2

Corynebacterium xerosis = assay: as above; type: cell-based; conditions: strain 9755, 18 hours at 37° C.
Method: as §2

Sarcina lutea = assay: as above; type: cell-based; conditions: Micrococcus luteus; strain 8340; 18 hours at 37° C.
Method: as §2

P.aeruginosa = assay: as above; type: cell-based; conditions: Pseudomonas aeruginosa; strain 10662; 18 hours at 37° C.
Method: as §2

S.aureus = assay: as above; type: cell-based; conditions: Staphylococcus aureus, 18 h, 18 hours at 37° C.
Method: as §2

Bacillus subtilis = assay: as above; type: cell-based; conditions: strain 6633, 18 hours at 37° C.
Method: as §2

S.pyogenes = assay: as above; type: cell-based; conditions: Streptococcus pyogenes, 18 h, 18 hours at 37° C.
Method: as §2

M.hyopneumoniae = assay: In vitro MIC against Mycoplasma, Friis broth agarose; type: cell-based
Method: (§3) The activity of the compounds of the Examples against various mycoplasmal organisms was assayed in vitro in Friis broth solidified with 0.9% agarose and inoculated with 10^3 to 10^5 C.F.U. The minimum inhibitory concentrations (MIC's) were determined after incubation for 6 days at 37° C. and are shown in Table 1.

M.bovigenitalium = assay: as above; type: cell-based; conditions: 144 h; strain ATCC 14173; 6 days at 37° C.
Method: as §3

M.gallisepticum = assay: as above; type: cell-based; conditions: Mycoplasmoides gallisepticum, 144 h; strain S6; 6 days at 37° C.
Method: as §3

M.bovis = assay: as above; type: cell-based; conditions: NCTC10131, 144 h
Method: as §3

M.hyosynoviae = assay: as above; type: cell-based; conditions: 144 h; strain ATCC 25591; 6 days at 37° C.
Method: as §3

M.pneumoniae = assay: as above; type: cell-based; conditions: Mycoplasmoides pneumoniae, ATCC15492, 144 h; strain ATCC 15492; 6 days at 37° C.
Method: as §3

M.hyorhinis = assay: as above; type: cell-based; conditions: Mesomycoplasma hyorhinis, 6 days at 37° C.
Method: as §3

CC(=CC(=O)OCCCCCCCCC(=O)O)CC1OCC(CC2OC2C(C)C(C)O)C(O)C1O (centres unmarked) [Anhydrous Amorphous Calcium Salt, Amorphous Anhydrous Calcium Pseudomonate A]
thermal stability (in words) [1]: poor thermal stability
Percentage Initial Potency after Storage ([1]; 192 h): 29%
Percentage Initial Potency after Storage ([1]; 240 h): 83.3%
water solubility (in words) (Water solubility): sparingly water soluble

CC(=CC(=O)OCCCCCCCCC(=O)O)CC1OCC(CC2OC2C(C)C(C)O)C(O)C1O (centres unmarked) [Calcium Pseudomonate dihydrate, Calcium Pseudomonate Dihydrate]
MIC [2]: 20 µg/mL
MIC (Corynebacterium pyogenes): > 80 µg/mL
MIC (Strep.dysgalaciae): 0.16 µg/mL
MIC (S.typhimurium): 80 µg/mL
MIC (Bord.bronchiseptica; strain B08): 5 µg/mL
MIC (Bord.bronchiseptica; strain B09): 1.3 µg/mL
MIC (Moraxella Bovis): 0.31 µg/mL
MIC (Strep.agalactiae): 0.16 µg/mL
MIC (Past.multocida): 0.07 µg/mL
MIC (E.coli [3]; NCTC10418, strain NCTC 10418): 80 µg/mL
MIC (E.coli [3]; strain E1): 80 µg/mL
MIC (B.subtilis): 0.07 µg/mL
MIC (Past.haemolytica): 2.5 µg/mL
MIC (Strep.suis (group D)): 0.63 µg/mL
MIC (Strep.uberis): 0.07 µg/mL
MIC (Staph.aureus; strain 152 (pen.sens.)): 0.16 µg/mL
MIC (Staph.aureus; strain (Mexi)): 0.16 µg/mL
MIC (Staph.aureus; strain B4 (pen.resistant)): 0.16 µg/mL
MIC (Staph.aureus; strain M60): 0.16 µg/mL
MIC (Staph.aureus; strain Oxford): < 0.1 µg/mL
MIC (S.dublin): 80 µg/mL
Percentage Initial Potency after Storage ([1]; 192 h): 97%
Percentage Initial Potency after Storage ([1]; 240 h): 98.9%
MIC (Pasteurella multocida): 0.5 µg/mL
MIC (Haemophilus influenzae; Haemophilus influenzae, strain Q1, read-out: MIC): 0.13 µg/mL
MIC (Haemophilus influenzae; strain Wy21): 0.13 µg/mL
MIC (S.faecalis; Enterococcus faecalis, strain Tunisia, read-out: MIC): 128 µg/mL
MIC (S.faecalis; strain I(ER+)): 128 µg/mL
MIC (S.faecalis; strain I): 128 µg/mL
MIC (S.faecalis; strain PAGE): 128 µg/mL
MIC (Streptococcus Spp; Streptococcus, S.spp. strain 64/848-C, read-out: MIC): 0.5 µg/mL
MIC (Streptococcus Spp; strain 2373C): 0.5 µg/mL
MIC (Streptococcus Spp; strain 2465C): 0.5 µg/mL
MIC (Streptococcus Spp; strain 2761C): 0.5 µg/mL
MIC (S.agalactiae; Streptococcus agalactiae, strain 2788-B, read-out: MIC): 0.5 µg/mL
MIC (S.agalactiae; strain 2798B): 0.5 µg/mL
MIC (S.agalactiae; strain 2866B): 0.5 µg/mL
MIC (Neisseria catarrhalis): 0.13 µg/mL
MIC (S.pneumoniae): 0.03 µg/mL
MIC (K.aerogenes): > 128 µg/mL
MIC (R.mirabilis): 128 µg/mL
MIC (E.coli [4]; NCTC10418, strain NCTC 10418): 128 µg/mL
MIC (E.coli [4]; strain ESS): 2 µg/mL
MIC (Corynebacterium xerosis): > 128 µg/mL
MIC (Sarcina lutea): > 128 µg/mL
MIC (P.aeruginosa): > 128 µg/mL
MIC (S.aureus; strain Oxford, read-out: MIC): 0.13 µg/mL
MIC (S.aureus; strain Russell, read-out: MIC): 0.25 µg/mL
MIC (S.aureus; strain T2P-, read-out: MIC): 0.25 µg/mL
MIC (S.aureus; strain T22P-): 0.25 µg/mL
MIC (S.aureus; strain T63P+): 0.25 µg/mL
MIC (S.aureus; strain T67P+): 0.5 µg/mL
MIC (S.aureus; strain V331, read-out: MIC): 0.5 µg/mL
MIC (S.aureus; strain V352, read-out: MIC): 0.5 µg/mL
MIC (S.aureus; strain W2827, read-out: MIC): 0.25 µg/mL
MIC (Bacillus subtilis): 0.5 µg/mL
MIC (S.pyogenes; strain 1947A): 0.13 µg/mL
MIC (S.pyogenes; strain 1953-A): 0.13 µg/mL
MIC (S.pyogenes; strain BcA): 0.5 µg/mL
MIC (S.pyogenes; strain CN10A): 0.03 µg/mL
MIC (M.hyopneumoniae; Mesomycoplasma hyopneumoniae, 144 h, mean of M.hyopneumoniae strains, read-out: MIC, MEAN): 2.5 µg/mL
MIC (M.hyopneumoniae; Mesomycoplasma hyopneumoniae, 144 h, strain JF 435, 6 days at 37° C., read-out: MIC): 2.5 µg/mL
MIC (M.hyopneumoniae; Mesomycoplasma hyopneumoniae, NCTC10110, 144 h, strain NCTC 10110, 6 days at 37° C., read-out: MIC): 2.5 µg/mL
MIC (M.hyopneumoniae; strain ATTCC 25095, 6 days at 37° C.): 2.5 µg/mL
MIC (M.hyopneumoniae; strain HK (2), 6 days at 37° C.): 2.5 µg/mL
MIC (M.hyopneumoniae; strain J2206/183b, 6 days at 37° C.): 2.5 µg/mL
MIC (M.hyopneumoniae; strain LABER, 6 days at 37° C.): 2.5 µg/mL
MIC (M.hyopneumoniae; strain MS16, 6 days at 37° C.): 2.5 µg/mL
MIC (M.hyopneumoniae; strain PW/C/210, 6 days at 37° C.): 2.5 µg/mL
MIC (M.hyopneumoniae; strain Str 11, 6 days at 37° C.): 2.5 µg/mL
MIC (M.hyopneumoniae; strain TAM 6N, 6 days at 37° C.): 2.5 µg/mL
MIC (M.hyopneumoniae; strain UCD1, 6 days at 37° C.): 2.5 µg/mL
MIC (M.bovigenitalium): 0.1 µg/mL
MIC (M.gallisepticum): > 10 µg/mL
MIC (M.bovis): 0.025 µg/mL
MIC (M.hyosynoviae): 0.5 µg/mL
MIC (M.pneumoniae): 5 µg/mL
MIC (M.hyorhinis; ATCC23234, 144 h, strain ATCC 23234): 1 µg/mL
MIC (M.hyorhinis; ATCC25021, 144 h, strain ATCC 25021): 1 µg/mL

C/C(=C\C(=O)OCCCCCCCCC(=O)O)C[C@@H]1OC[C@H](C[C@@H]2O[C@H]2[C@@H](C)[C@H](C)O)[C@@H](O)[C@H]1O [Pseudomonic Acid, Pseudomonic acid]
Percentage Initial Potency after Storage ([1]; 192 h): 0%
Percentage Initial Potency after Storage ([1]; 240 h): 77.9%

CC(=CC(=O)OCCCCCCCCC(=O)O)CC1OCC(CC2OC2C(C)C(C)O)C(O)C1O (centres unmarked) [crystalline calcium pseudomonate, calcium pseudomonate]
thermal stability (in words) [1]: outstandingly good thermal stability
